Reference: PubChem BioAssay (NCI)
Several values for one entry are separate records, joined by “and”; a condition that tells them apart may be missing. Identical values can stand only once.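 Five concentrations, 48 hours, 96-well plates. GI50: concentration for 50% inhibition of growth. TGI denotes the concentration required for complete inhibition of growth.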

Assays:
Assay in all cases: NCI-60 cell line screen, 48 h
MCF7 breast = test system: MCF7 breast
RXF-631 renal = test system: RXF-631 renal
DMS 273 small cell lung = test system: DMS 273 small cell lung
DMS 114 small cell lung = test system: DMS 114 small cell lung
LXFL 529 NSCLC = test system: LXFL 529 NSCLC
XF 498 CNS = test system: XF 498 CNS
HOP-18 NSCLC = test system: HOP-18 NSCLC
SNB-78 CNS = test system: SNB-78 CNS
MDA-N = test system: MDA-N

Row | SMILES | GI50 (MCF7 breast) | TGI (MCF7 breast) | TGI (DMS 273 small cell lung) | TGI (DMS 114 small cell lung) | TGI (LXFL 529 NSCLC) | TGI (HOP-18 NSCLC) | other results
1 | Cc1cc(Cl)ccc1Nc1nc(C(F)(F)F)ccc1C(=O)N/N=C/c1ccc([N+](=O)[O-])cc1 | 1.58 µM | 6.93 µM | – | – | – | – | –
2 | CC(=O)NC(CCCCNC(=O)NCCCl)C(=O)NCc1ccccc1 (stereo not given) | – | – | > 100 µM | > 100 µM | > 100 µM | > 100 µM | TGI (RXF-631 renal): > 100 µM; TGI (XF 498 CNS): > 100 µM
3 | C/C(CCc1ccccc1)=N\NC(N)=S | – | – | > 100 µM | > 100 µM | > 100 µM | > 100 µM | TGI (RXF-631 renal): > 100 µM; TGI (SNB-78 CNS): > 100 µM; TGI (XF 498 CNS): > 100 µM
4 | COc1ccc(Cn2c3c(cc(OS(=O)(=O)C(F)(F)F)c2=O)Cc2ccccc2-3)cc1 | – | – | – | – | – | – | GI50 (MDA-N): 7.55 µM; TGI (MDA-N): 50 µM and > 100 µM
5 | NCCCCNc1ccc2c(=O)[nH][nH]c(=O)c2c1 | – | – | > 100 µM | > 100 µM | > 100 µM | > 100 µM | TGI (SNB-78 CNS): > 100 µM
6 | C[C@]12CCCC(=O)C1(O)C[C@H](C(=O)O)CC2 (stereo not given in full) | – | – | > 100 µM | > 100 µM | > 100 µM | > 100 µM | TGI (RXF-631 renal): > 100 µM; TGI (XF 498 CNS): > 100 µM
7 | COC(=O)C(CC(=O)Nc1ccc(C)cc1)C(=O)C(=O)Nc1ccccc1C(C)C (stereo not given) | – | – | > 100 µM | > 100 µM | > 100 µM | > 100 µM | TGI (SNB-78 CNS): > 100 µM; TGI (XF 498 CNS): > 100 µM
8 | CCC[n+]1cc2cc(OC)c(OC)cc2c2c1-c1cc3c(cc1C2)OCO3 | 2.59 µM | > 33.8 µM | – | – | – | – | GI50 (MDA-N): 2.83 µM; TGI (MDA-N): 11 µM
9 | Cc1cc(S(=O)(=O)NC#N)c(S/C(=N\Nc2ccc([N+](=O)[O-])cc2)c2ccc(Cl)cc2)cc1Cl | 15.9 µM | 42.6 µM | – | – | – | – | –
10 | Fc1cc2[nH]ncc2c2c3c(c(-c4cn[nH]c4C(F)(F)F)nc12)C1CCC3C1 (stereo not given) | 0.815 µM | 5.57 µM | – | – | – | – | –
11 | COc1cc2c(=O)n(CCN)c3c4cc5c(cc4ccc3c2cc1OC)OCO5 | 0.175 µM | 1.53 µM | – | – | – | – | –
12 | CCN(CC)C(=S)Oc1cc2oc(=O)cc(C)c2cc1Cl | – | > 100 µM | – | – | – | – | TGI (MDA-N): > 100 µM
13 | Cc1nc2sccn2c1-c1csc(Nc2cccc(Cl)c2C)n1 | 3.34 µM | 25.6 µM | – | – | – | – | –
14 | COC(=O)C(=O)C(C(=O)C(=O)Nc1cccc(C(C)=O)c1)c1nc2ccccc2[nH]c1=O (stereo not given) | – | – | > 100 µM | > 100 µM | > 100 µM | > 100 µM | TGI (RXF-631 renal): > 100 µM
15 | Cc1cc(C)c(C(=O)c2no[n+]([O-])c2C(=O)c2c(C)cc(C)c(Br)c2C)c(C)c1Br | – | – | 45.1 µM | 23.4 µM | 23.7 µM | – | TGI (RXF-631 renal): 35.7 µM; TGI (SNB-78 CNS): 70.8 µM
16 | COc1cc(C(=O)Nc2cc3c(cc2Oc2cc(C)cc(C)c2)C(=O)N(C)[C@@H](CC(=O)N(C)O)C(=O)N3)c(Br)c(OC)c1OC | < 0.00333 µM | 0.00821 µM | – | – | – | – | –
17 | Nc1ccc(C(=O)CC(N)C(=O)O)cc1O (stereo not given) | – | > 100 µM | – | – | – | – | TGI (MDA-N): > 100 µM
18 | CN(C)CC1CCC/C1=N\O (stereo not given) | – | – | > 100 µM | – | > 100 µM | > 100 µM | TGI (SNB-78 CNS): > 100 µM
19 | CNCCn1c(=O)c2cc(OC)c(OC)cc2c2ccc3cc4c(cc3c21)OCO4 | 0.0296 µM | 4.43 µM | – | – | – | – | –
20 | CC(=O)OCC(OC(C)=O)C(OC(C)=O)C(OC(C)=O)C(=O)CNn1c(-c2ccccc2Cl)nc2ccccc2c1=O (stereo not given) | – | – | > 100 µM | > 100 µM | > 100 µM | – | TGI (SNB-78 CNS): > 100 µM

Row | SMILES | GI50 (MCF7 breast) | TGI (MCF7 breast) | TGI (DMS 273 small cell lung) | TGI (DMS 114 small cell lung) | TGI (LXFL 529 NSCLC) | TGI (HOP-18 NSCLC) | other results
21 | CCOC(=O)/C=C1\CCCC12OCCO2 | – | – | > 100 µM | > 100 µM | > 100 µM | > 100 µM | TGI (SNB-78 CNS): > 100 µM
22 | OCCNc1ncnc2c1ncn2Cc1cccc(COc2cccc(OCc3cccc(Cn4cnc5c(NCCO)ncnc54)c3)c2)c1 | 12.6 µM | 26.1 µM | – | – | – | – | –
23 | CN1C(=O)N(C)C2C1NN=c1s/c(=C\c3ccc(F)cc3)c(=O)n12 (stereo not given) | 0.673 µM | > 100 µM | – | – | – | – | –
24 | COC(=O)c1nc(Cl)nc(Cl)c1Cl | – | 55.1 µM | – | – | – | – | TGI (MDA-N): 76.8 µM
25 | CCN(CC)C(=S)SC | – | > 100 µM | – | – | – | – | TGI (MDA-N): > 100 µM
26 | COc1ccc2cc(-c3c(-c4ccncc4)nc(-c4ccc(S(C)(=O)=O)cc4C)n3C)ccc2c1 | 7.09 µM | > 18.4 µM | – | – | – | – | –
27 | COc1ccc(Cn2cc3c(c2)-c2oncc2CC3)cc1 | 3.07 µM | > 100 µM | – | – | – | – | –
28 | CC[O-].CC[O-].O=S(=O)([O-])c1ccc([O-])c2ncccc12.O=S(=O)([O-])c1ccc([O-])c2ncccc12.[Ti+4] | – | – | > 100 µM | > 100 µM | > 100 µM | > 100 µM | GI50 (DMS 273 small cell lung): 78.1 µM; GI50 (SNB-78 CNS): > 100 µM; TGI (SNB-78 CNS): > 100 µM; GI50 (DMS 114 small cell lung): 74.7 µM; GI50 (LXFL 529 NSCLC): 39.6 µM; GI50 (HOP-18 NSCLC): > 100 µM
29 | CCOP(=O)(OCC)OC(C#N)c1ccc(-c2ccccc2)cc1 (stereo not given) | – | – | 27.5 µM | 29.6 µM | 32 µM | 98.2 µM | TGI (SNB-78 CNS): > 100 µM; TGI (XF 498 CNS): 50.1 µM
30 | NC(=O)c1cc2c3ccccc3ccn2c1-c1ccccc1 | 0.0597 µM | 13.5 µM | – | – | – | – | –
31 | CC1C(=O)OCC2=CCN3CCC(OC(=O)C(C)C1(C)O)C23 (stereo not given) | – | – | – | – | – | – | TGI (MDA-N): > 100 µM
32 | C/C(=N\N(c1ccccc1)c1ccccc1)c1c(O)cc(C)oc1=O | – | – | – | – | > 100 µM | > 100 µM | TGI (SNB-78 CNS): > 100 µM
33 | Cc1cc2c(cc1C)N(C(=O)CCl)CCN2C(=O)CCl | 0.451 µM | 2.02 µM | – | – | – | – | –
34 | COc1ccc2c(c1)/C(=C\c1c(Cl)[nH]c3ccc(OC)cc13)C(=O)N2 | 44.9 µM | > 100 µM | – | – | – | – | –
35 | COC(=O)[C@]12CCC(C)[C@H](C)[C@H]1C1=CCC3[C@@]4(C)CC[C@H](OC(C)=O)C(C)(C)C4CC[C@@]3(C)C1(C)C(O)C2 (stereo not given in full) | – | – | > 100 µM | > 100 µM | > 100 µM | > 100 µM | TGI (SNB-78 CNS): > 100 µM; TGI (XF 498 CNS): > 100 µM
36 | COC(=O)c1ccccc1NC(=O)C(=O)NNC(=O)c1ccncc1 | – | – | > 100 µM | > 100 µM | > 100 µM | > 100 µM | TGI (RXF-631 renal): > 100 µM; TGI (XF 498 CNS): > 100 µM
37 | O=c1cccc(C2CC(CO)C3CCCCN3C2)[nH]1 (stereo not given) | – | > 100 µM | – | – | – | – | TGI (MDA-N): > 100 µM
38 | CCOc1cccc(/C=N/NC(=O)C(=O)Nc2cccc(C(F)(F)F)c2)c1O | 2.14 µM | > 100 µM | – | – | – | – | –
39 | CCn1c(-c2nonc2N)nc2c(C#CC(C)(C)O)nc(OCCNC)cc21 | 4.9 µM | > 25 µM | – | – | – | – | –
40 | CC(CCC(=O)O)C(=O)O (stereo not given) | – | > 100 µM | – | – | – | – | TGI (MDA-N): > 100 µM
